Assay results taken from patent US12448377B2, “Heterocyclic compound” (Takeda Pharmaceutical Company Limited, priority 2019, dated 2025).

The molecules below were run against T1, human orexin type 2 receptor (Homo sapiens, UniProt O43614) (assay: Measurement of orexin type 2 receptor agonist activity (calcium fluorescence, CHO cells forcibly expressing human OX2 receptor)). Conditions: compound at 3 μM, DMSO = 0%, orexin A (human) 10 nM = 100%.
T1 construct: expressed in transfected cells
T1 sequence (O43614 1-444): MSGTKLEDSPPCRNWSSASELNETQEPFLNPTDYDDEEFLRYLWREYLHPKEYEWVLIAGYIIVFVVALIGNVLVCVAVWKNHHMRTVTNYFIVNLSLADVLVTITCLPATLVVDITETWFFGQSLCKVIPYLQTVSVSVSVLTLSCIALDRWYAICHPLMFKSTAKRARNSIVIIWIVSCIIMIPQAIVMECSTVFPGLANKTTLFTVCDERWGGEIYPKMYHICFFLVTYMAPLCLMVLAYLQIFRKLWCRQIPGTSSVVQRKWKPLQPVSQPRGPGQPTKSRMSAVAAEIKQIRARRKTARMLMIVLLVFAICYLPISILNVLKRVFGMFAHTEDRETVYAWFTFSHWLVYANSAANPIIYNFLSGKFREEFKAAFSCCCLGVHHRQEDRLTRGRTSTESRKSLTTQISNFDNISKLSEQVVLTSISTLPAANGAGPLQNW
Type: cell-based
Source text: To obtain a cell clone stably expressing human orexin type 2 receptor, human orexin type 2 receptor cDNA was inserted into pcDNA3.1(+) plasmid vector (Invitrogen), and a plasmid DNA for expression of human orexin type 2 receptor (pcDNA3.1(+)/hOX2R) was cloned. The plasmid DNA was introduced into CHO-K1 cell by an electroporation method, and human orexin type 2 receptor-expressing clonal cells were obtained by limiting dilution method using G418 drug resistance as a selection marker.
CHO cells forcibly expressing human OX2 receptor were seeded in each well of 384 well black transparent bottom plate (BD Falcon) at 10,000 cells/well, and cultured for one day in a 5% CO2 incubator at 37° C. After removal of the medium in the cell plate, assay buffer A containing a calcium indicator (HBSS (Thermo Fisher Scientific), 20 mM HEPES (Thermo Fisher Scientific), 0.1% BSA (Sigma-Aldrich), 2.5 μg/mL Fluo-4 AM (DOJINDO Chemical), 0.08% Pluronic F127 (DOJINDO Chemical), 1.25 mM probenecid (DOJINDO Chemical)) was added thereto at 30 μL/well. The plate was stood for 30 min in a 5% CO2 incubator at 37° C., and further stood at room temperature for 30 min. A test compound prepared by diluting with assay buffer B (HBSS, 20 mM HEPES, 0.1% BSA) was added thereto at 10 μL/well, and the fluorescence value was measured by FDSSμCELL (Hamamatsu Photonics K.K.) every one sec for 1 min, and thereafter every two sec for 1 min 40 sec. The activity (%) of the test compound was calculated assuming that variation in the fluorescence value when DMSO was added instead of the test compound was 0%, and variation in the fluorescence value when orexin A (human) (PEPTIDE INSTITUTE, INC.) was added at the final concentration of 10 nM was 100%.

OX2R agonist activity (3 μM, %)	SMILES
97%	Cc1ccccc1C1CCC(OCC2C(NS(=O)(=O)C3CC3)CCc3ccc(C)c(=O)n32)CC1 (racemic) [Example 20, rac-N-[(3S,4R)-7-methyl-4-({[(1s,4S)-4-(2-methylphenyl)cyclohexyl]oxy}methyl)-6-oxo-1,3,4,6-tetrahydro-2H-quinolizin-3-yl]cyclopropanesulfonamide]
92%	Cc1cccc(C2CCC(OCC3C(NS(C)(=O)=O)CCc4ccc(C)c(=O)n43)CC2)c1 (racemic) [Example 21, rac-N-[(3S,4R)-7-methyl-4-({[(1s,4S)-4-(3-methylphenyl)cyclohexyl]oxy}methyl)-6-oxo-1,3,4,6-tetrahydro-2H-quinolizin-3-yl]methanesulfonamide]
83%	CCS(=O)(=O)NC1CCc2ccc(C)c(=O)n2C1COC1CCC(c2cccc(C)c2)CC1 (racemic) [Example 22, rac-N-[(3S,4R)-7-methyl-4-({[(1s,4S)-4-(3-methylphenyl)cyclohexyl]oxy}methyl)-6-oxo-1,3,4,6-tetrahydro-2H-quinolizin-3-yl]ethanesulfonamide]
96%	CCS(=O)(=O)NC1CCc2ccc(C)c(=O)n2C1COC1CCC(c2ccccc2C)CC1 (racemic) [Example 23, rac-N-[(3S,4R)-7-methyl-4-({[(1s,4S)-4-(2-methylphenyl)cyclohexyl]oxy}methyl)-6-oxo-1,3,4,6-tetrahydro-2H-quinolizin-3-yl]ethanesulfonamide]
86%	Cc1ccc2n(c1=O)C(COC1CCC(C(C)(C)C)CC1)C(NS(=O)(=O)C1CC1)CC2 (racemic) [Example 24, rac-N-[(3S,4R)-4-({[(1s,4S)-4-tert-butylcyclohexyl]oxy}methyl)-7-methyl-6-oxo-1,3,4,6-tetrahydro-2H-quinolizin-3-yl]cyclopropanesulfonamide]
92%	Cc1cccc(C2CCC(OCC3C(NS(=O)(=O)C4CC4)CCc4ccc(C)c(=O)n43)CC2)c1 (racemic) [Example 25, rac-N-[(3S,4R)-7-methyl-4-({[(1s,4S)-4-(3-methylphenyl)cyclohexyl]oxy}methyl)-6-oxo-1,3,4,6-tetrahydro-2H-quinolizin-3-yl]cyclopropanesulfonamide]
86%	Cc1ccc2n(c1=O)C(COC1CCC(C)CC1)C(NS(=O)(=O)N(C)C)CC2 (racemic) [Example 26, rac-N,N-dimethyl-N′-[(3S,4R)-7-methyl-4-({[(1s,4S)-4-methylcyclohexyl]oxy}methyl)-6-oxo-1,3,4,6-tetrahydro-2H-quinolizin-3-yl]sulfuric diamide]
85%	CCC1CCC(OCC2C(NS(=O)(=O)N(C)C)CCc3ccc(C)c(=O)n32)CC1 (racemic) [Example 27, rac-N′-[(3S,4R)-4-({[(1s,4S)-4-ethylcyclohexyl]oxy}methyl)-7-methyl-6-oxo-1,3,4,6-tetrahydro-2H-quinolizin-3-yl]-N,N-dimethylsulfuric diamide]

The next lines start with the molecule.

SMILES	OX2R agonist activity (3 μM, %)
CCc1ccc2n(c1=O)C(COC1CCC(C)CC1)C(NS(C)(=O)=O)CC2 (racemic) [Example 2, rac-N-[(3S,4R)-7-ethyl-4-({[(1s,4S)-4-methylcyclohexyl]oxy}methyl)-6-oxo-1,3,4,6-tetrahydro-2H-quinolizin-3-yl]methanesulfonamide]	94%
CC1CCC(OCC2C(NS(C)(=O)=O)CCc3cccc(=O)n32)CC1 (racemic) [Example 3, rac-N-[(3S,4R)-4-({[(1s,4S)-4-methylcyclohexyl]oxy}methyl)-6-oxo-1,3,4,6-tetrahydro-2H-quinolizin-3-yl]methanesulfonamide]	89%
COC1CCC(OCC2C(NS(C)(=O)=O)CCc3ccc(C)c(=O)n32)CC1 (racemic) [Example 4, N-[(3SR,4RS)-4-{[(4-methoxycyclohexyl)oxy]methyl}-7-methyl-6-oxo-1,3,4,6-tetrahydro-2H-quinolizin-3-yl]methanesulfonamide]	58%
CCS(=O)(=O)NC1CCc2ccc(C)c(=O)n2C1COC1CCC(C)CC1 (racemic) [Example 7, rac-N-[(3S,4R)-7-methyl-4-({[(1s,4S)-4-methylcyclohexyl]oxy}methyl)-6-oxo-1,3,4,6-tetrahydro-2H-quinolizin-3-yl]ethanesulfonamide]	85%
Cc1ccc2n(c1=O)C(COC1CCC(C)CC1)C(NS(=O)(=O)C1CC1)CC2 (racemic) [Example 8, rac-N-[(3S,4R)-7-methyl-4-({[(1s,4S)-4-methylcyclohexyl]oxy}methyl)-6-oxo-1,3,4,6-tetrahydro-2H-quinolizin-3-yl]cyclopropanesulfonamide]	80%
CCC1CCC(OCC2C(NS(=O)(=O)C3CC3)CCc3ccc(C)c(=O)n32)CC1 (racemic) [Example 10, rac-N-[(3S,4R)-4-({[(1s,4S)-4-ethylcyclohexyl]oxy}methyl)-7-methyl-6-oxo-1,3,4,6-tetrahydro-2H-quinolizin-3-yl]cyclopropanesulfonamide]	97%
CCC1CCC(OCC2C(NS(=O)(=O)CC)CCc3ccc(C)c(=O)n32)CC1 (racemic) [Example 11, rac-N-[(3S,4R)-4-({[(1s,4S)-4-ethylcyclohexyl]oxy}methyl)-7-methyl-6-oxo-1,3,4,6-tetrahydro-2H-quinolizin-3-yl]ethanesulfonamide]	100%
Cc1ccc2n(c1=O)C(COC1CCC(C(C)C)CC1)C(NS(C)(=O)=O)CC2 (racemic) [Example 12, rac-N-[(3S,4R)-7-methyl-6-oxo-4-({[(1s,4S)-4-(propan-2-yl)cyclohexyl]oxy}methyl)-1,3,4,6-tetrahydro-2H-quinolizin-3-yl] methanesulfonamide]	96%
CCS(=O)(=O)NC1CCc2ccc(C)c(=O)n2C1COC1CCC(C(C)C)CC1 (racemic) [Example 13, rac-N-[(3S,4R)-7-methyl-6-oxo-4-({[(1s,4S)-4-(propan-2-yl)cyclohexyl]oxy}methyl)-1,3,4,6-tetrahydro-2H-quinolizin-3-yl]ethanesulfonamide]	96%
Cc1ccc2n(c1=O)C(COC1CCC(C(C)C)CC1)C(NS(=O)(=O)C1CC1)CC2 (racemic) [Example 14, rac-N-[(3S,4R)-7-methyl-6-oxo-4-({[(1s,4S)-4-(propan-2-yl)cyclohexyl]oxy}methyl)-1,3,4,6-tetrahydro-2H-quinolizin-3-yl]cyclopropanesulfonamide]	100%
CCS(=O)(=O)NC1CCc2ccc(C)c(=O)n2C1COC1CCC(c2ccccc2)CC1 (racemic) [Example 15, rac-N-[(3S,4R)-7-methyl-6-oxo-4-({[(1s,4S)-4-phenylcyclohexyl]oxy}methyl)-1,3,4,6-tetrahydro-2H-quinolizin-3-yl]ethanesulfonamide]	96%
Cc1ccc2n(c1=O)C(COC1CCC(c3ccccc3)CC1)C(NS(=O)(=O)C1CC1)CC2 (racemic) [Example 16, rac-N-[(3S,4R)-7-methyl-6-oxo-4-({[(1s,4S)-4-phenylcyclohexyl]oxy}methyl)-1,3,4,6-tetrahydro-2H-quinolizin-3-yl]cyclopropanesulfonamide]	91%
Cc1ccc2n(c1=O)C(COC1CCC(C(C)(C)C)CC1)C(NS(C)(=O)=O)CC2 (racemic) [Example 17, rac-N-[(3S,4R)-4-({[(1s,4S)-4-tert-butylcyclohexyl]oxy}methyl)-7-methyl-6-oxo-1,3,4,6-tetrahydro-2H-quinolizin-3-yl]methanesulfonamide]	86%
CCS(=O)(=O)NC1CCc2ccc(C)c(=O)n2C1COC1CCC(C(C)(C)C)CC1 (racemic) [Example 18, rac-N-[(3S,4R)-4-({[(1s,4S)-4-tert-butylcyclohexyl]oxy}methyl)-7-methyl-6-oxo-1,3,4,6-tetrahydro-2H-quinolizin-3-yl]ethanesulfonamide]	96%
Cc1ccccc1C1CCC(OCC2C(NS(C)(=O)=O)CCc3ccc(C)c(=O)n32)CC1 (racemic) [Example 19, rac-N-[(3S,4R)-7-methyl-4-({[(1s,4S)-4-(2-methylphenyl)cyclohexyl]oxy}methyl)-6-oxo-1,3,4,6-tetrahydro-2H-quinolizin-3-yl]methanesulfonamide]	89%
